Where “and” joins values, the source holds several entries; their conditions need not be identical. Equal values may be shown once. Read-outs that look alike come from different tables or passages of the source.
Assays:
[1] = test system: molidustat glucuronidation (clearance); assay: In vitro-in vivo scaling: predicted increase in molidustat AUC; set-up: species or system human; conditions: based on mass balance study, no differentiation UGT1A1/UGT1A9
UGT1A4 = target: T1, UGT1A4 (Homo sapiens, UniProt P22310); assay: M1 formation from molidustat by recombinant UGT1A4; format: in vitro ADME; conditions: 1 and 10 µmol L^−1
T1 sequence (P22310 29-534): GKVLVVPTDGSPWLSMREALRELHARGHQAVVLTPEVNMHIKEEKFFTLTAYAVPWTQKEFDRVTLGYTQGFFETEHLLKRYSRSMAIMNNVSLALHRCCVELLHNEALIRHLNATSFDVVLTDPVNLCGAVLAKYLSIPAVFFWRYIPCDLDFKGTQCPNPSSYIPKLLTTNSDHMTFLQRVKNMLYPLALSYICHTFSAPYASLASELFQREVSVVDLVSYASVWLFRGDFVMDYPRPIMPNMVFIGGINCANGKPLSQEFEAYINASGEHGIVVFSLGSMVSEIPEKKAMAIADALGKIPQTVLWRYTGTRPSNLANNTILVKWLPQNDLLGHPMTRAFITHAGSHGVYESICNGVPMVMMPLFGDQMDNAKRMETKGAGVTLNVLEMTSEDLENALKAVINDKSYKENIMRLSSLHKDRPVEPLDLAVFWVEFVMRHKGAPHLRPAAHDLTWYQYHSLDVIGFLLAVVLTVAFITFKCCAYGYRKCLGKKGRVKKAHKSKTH

UGT1A6 = target: T2, UGT1A6 (Homo sapiens, UniProt P19224); assay: M1 formation from molidustat by recombinant UGT1A6; format: in vitro ADME; conditions: 1 and 10 µmol L^−1
T2 sequence (P19224 27-532): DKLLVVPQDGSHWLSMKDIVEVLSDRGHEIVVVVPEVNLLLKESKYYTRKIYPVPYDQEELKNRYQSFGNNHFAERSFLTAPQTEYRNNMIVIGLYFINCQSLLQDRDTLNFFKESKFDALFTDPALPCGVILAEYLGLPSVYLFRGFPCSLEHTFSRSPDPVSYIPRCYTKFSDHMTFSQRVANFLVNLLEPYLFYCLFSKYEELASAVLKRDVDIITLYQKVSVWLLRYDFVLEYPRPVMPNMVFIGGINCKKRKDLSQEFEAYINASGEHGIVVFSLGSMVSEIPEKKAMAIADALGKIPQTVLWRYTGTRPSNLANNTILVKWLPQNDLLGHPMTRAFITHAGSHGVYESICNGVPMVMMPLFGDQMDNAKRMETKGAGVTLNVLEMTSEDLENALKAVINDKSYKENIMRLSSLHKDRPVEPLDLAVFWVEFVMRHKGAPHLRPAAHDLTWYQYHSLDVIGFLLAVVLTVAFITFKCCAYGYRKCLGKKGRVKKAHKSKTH

UGT2B4 = target: T3, UGT2B4 (Homo sapiens, UniProt P06133); assay: M1 formation from molidustat by recombinant UGT2B4; format: in vitro ADME; conditions: 1 and 10 µmol L^−1
T3 sequence (P06133 24-528): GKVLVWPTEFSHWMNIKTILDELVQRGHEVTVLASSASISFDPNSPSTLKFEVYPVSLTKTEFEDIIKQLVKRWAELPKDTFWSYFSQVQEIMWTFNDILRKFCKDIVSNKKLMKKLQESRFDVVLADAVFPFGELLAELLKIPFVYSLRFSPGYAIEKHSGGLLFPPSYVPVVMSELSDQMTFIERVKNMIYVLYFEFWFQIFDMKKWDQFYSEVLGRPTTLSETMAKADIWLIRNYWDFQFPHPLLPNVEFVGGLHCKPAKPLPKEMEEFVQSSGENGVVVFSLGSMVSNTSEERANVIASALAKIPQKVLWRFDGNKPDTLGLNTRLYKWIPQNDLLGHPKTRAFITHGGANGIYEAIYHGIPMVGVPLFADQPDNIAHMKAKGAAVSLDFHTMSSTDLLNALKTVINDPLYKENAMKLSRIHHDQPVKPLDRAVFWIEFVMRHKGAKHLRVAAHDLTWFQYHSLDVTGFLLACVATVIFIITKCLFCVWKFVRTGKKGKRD

UGT2B7 = target: T4, UGT2B7 (Homo sapiens, UniProt P16662); assay: M1 formation from molidustat by recombinant UGT2B7; format: in vitro ADME; conditions: 1 and 10 µmol L^−1
T4 sequence (P16662 24-529): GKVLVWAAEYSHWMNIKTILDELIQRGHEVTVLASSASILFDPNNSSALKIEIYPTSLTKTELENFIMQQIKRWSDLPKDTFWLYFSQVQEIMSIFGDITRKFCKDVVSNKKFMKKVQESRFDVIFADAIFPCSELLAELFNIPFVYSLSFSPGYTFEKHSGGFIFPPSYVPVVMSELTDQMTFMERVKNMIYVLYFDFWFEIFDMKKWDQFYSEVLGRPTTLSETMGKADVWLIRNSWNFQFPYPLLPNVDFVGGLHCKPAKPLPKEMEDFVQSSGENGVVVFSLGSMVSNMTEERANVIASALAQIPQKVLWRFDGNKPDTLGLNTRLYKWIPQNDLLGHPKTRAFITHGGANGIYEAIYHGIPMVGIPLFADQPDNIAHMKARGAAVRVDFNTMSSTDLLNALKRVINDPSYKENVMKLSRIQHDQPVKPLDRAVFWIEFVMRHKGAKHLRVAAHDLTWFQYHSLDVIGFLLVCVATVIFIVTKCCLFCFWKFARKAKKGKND

[2] = test system: UGT-mediated glucuronidation of molidustat; assay: Enzyme kinetics of molidustat glucuronidation in pooled human liver microsomes; format: in vitro ADME; conditions: human, pooled human liver microsomes, pH 7.4
[3] = test system: pooled human liver microsomes; assay: as above; format: in vitro ADME; conditions: human liver microsomes, Hill equation
[4] = format: in vivo, human; conditions: for Point estimate parameter ratio, AUC / Point estimate parameter ratio, AUC(0‐tlast) / Point estimate parameter ratio, C max: (Molidustat + atazanavir)/molidustat, ANOVA
EPO = assay: Clinical DDI study: pharmacodynamics, serum erythropoietin; format: in vivo, human; conditions: N 13
[5] = Clinical DDI study: safety and tolerability; format: in vivo, human; conditions: n = 14
[6] = human, cited from earlier work; for absolute oral bioavailability: oral (IR tablet)
HIF‐PH (EC 1.14.11.29) = conditions: cited from earlier work
[7] = male, human, plasma, oral, 25 mg

- Fraction metabolized via total glucuronidation (fm) [1]: ~ 0.9 and 0.9
- activity for glucuronidation of molidustat (UGT1A4): lacked measurable activity
- activity for glucuronidation of molidustat (UGT1A6): lacked measurable activity
- activity for glucuronidation of molidustat (UGT2B4): lacked measurable activity
- activity for glucuronidation of molidustat (UGT2B7): lacked measurable activity
- Km [2]: 90 µM
- estimated S50 [3]: 90 µmol/L
- Point estimate parameter ratio, AUC [4]: 2.0665
- Point estimate parameter ratio, AUC(0‐tlast) [4]: 2.0766
- Point estimate parameter ratio, C max [4]: 2.0689
- Point estimate parameter ratio, AUC ([4]; listed as molidustat): 2.07 and 2
- Point estimate parameter ratio, AUC(0‐tlast) ([4]; listed as molidustat): 2.08
- Point estimate parameter ratio, C max ([4]; listed as molidustat): 2.07
- increase in exposure for molidustat with concomitant atazanavir ([4]; AUC, AUC(0‐t last), C max): approximately 100%
- half-life [4, 7]: 6.3 h
- t max [4, 7]: 0.75 h
Compound: O=c1c(-n2ccnn2)c[nH]n1-c1cc(N2CCOCC2)ncn1 [Molidustat]
- EPO AUC(0‐24), absolute EPO concentration, arithmetic mean ± SD (EPO): 385 ± 121 IU L^−1*h
- EPO AUC(0‐24), absolute EPO concentration, geometric mean/CV% (EPO): 365 IU L^−1*h
- EPO C max, difference to baseline, arithmetic mean ± SD (EPO): 12.8 ± 4.02 IU L^−1
- EPO C max, ratio to baseline, arithmetic mean ± SD (EPO): 2.62 ± 0.578
- EPO C max, ratio to baseline, geometric mean/CV% (EPO): 2.56
- Abdominal pain (participants with TEAE) [5]: 0 n (%)
- Headache (participants with TEAE) [5]: 0 n (%)
- Participants with ≥ 1 TEAE [5]: 0 n (%)
- Jaundice (participants with TEAE) ([5]; considered related to atazanavir): 0 n (%)
- absolute oral bioavailability [6]: about 60%
- absolute oral bioavailability ([6]; listed as molidustat): 59%
- fraction of the dose excreted as molidustat via faeces [6]: ~ 6%
- fraction of the dose excreted as molidustat via urine [6]: ~ 4%
- inhibition of HIF‐PH (HIF‐PH (EC 1.14.11.29)): nanomolar concentration range

— paper PMC7983974 (Basic & Clinical Pharmacology & Toxicology, 2020)
